Assay results reported in patent US11033527B2, “Non-hormonal treatment of the genitourinary syndrome of menopause” (IMMUGEN PHARMA LLC, priority 2018, dated 2021).
“And” between values parts separate entries of the source, which are not always exact repeats. Equal entries are not always repeated.

Experiments:
[1] = test system: EpiVaginal tissues; assay: macrophage infiltration in treated EpiVaginal tissues (barrier function), four hours in the presence of TNF-α; format: cell-based; settings: vs. 28% into the untreated tissue; macrophages cultured with the tissue for four hours in the presence of TNF-α
From the text: FIG. 1 is a graph showing macrophage infiltration in hormone (estrogen) and L759,633-treated EpiVaginal tissues. L759,633 had the most striking effect on macrophage infiltration: only 6% of cells infiltrated into the tissue past 90 μm (vs. 28% into the untreated tissue, p<0.006 ANOVA). […] U=untreated control; E=estradiol; P=progesterone; and IMG=the cannabinoid L759,633.
Many of the above-noted genes are differentially regulated by estradiol in menopausal tissue. […] With respect to the barrier function, only 6% of macrophages which had been cultured with the tissue for four hours in the presence of TNF-α were capable of infiltrating into the tissue past 90 um (vs. 28% into the untreated tissue, p<0.006 ANOVA). […] This would indicate that the increased gene expression of the proteins involved with cross-linking of the keratin fibers, filagrins and desmosomal cadherins are all contributing to the fortification of the vaginal mucosa which would prevent the infiltration of pathogens and prevent the loss of solutes and water from within the tissue.

[2] = test system: vaginal tissue construct; assay: microarray analysis of differential gene expression (Affymetrix Human Gene 1.0 ST arrays), tissues treated for seven days via culture medium; format: cell-based
From the text: The data from the Affymetrix Human Gene 1.0 ST arrays were normalized using the Robust Multiarray Average (RMA) algorithm and a Chip Definition File (CDF) that maps the probes on the array to unique Entrez Gene identifiers. The result is a matrix in which each column corresponds to a sample. The expression values are log 2-transformed by default.
By using a fold change >1.5, an analysis of differentially expressed genes was done to identify those genes which were involved in the cornified envelope, keratinocyte differentiation, cell differentiation, epidermis development, epithelial cell differentiation, junctional proteins and signaling, immune response and innate immune response.

[3] = down-regulated by this fold, given without sign

SMILES: CCCCCCC(C)(C)c1cc(OC)c2c(c1)OC(C)(C)[C@@H]1CC=C(C)C[C@@H]21 [L759,633]
- macrophages infiltrated into the tissue past 90 μm [1]: 6%
- SPRR2D Fold Change [2]: 3.431 fold
- WFDC12 Fold Change [2]: 7.884 fold
- CFB down-regulation [2, 3]: 2.285 fold
- CFH down-regulation [2, 3]: 1.769 fold
- AGR2 Fold Change ([2]; gene Anterior gradient homolog 2 (Xenopus laevis)): −3.1 fold
- CXCL8 Expr Fold Change ([2]; gene C-X-C motif chemokine ligand 8): −2.298 fold
- CXCL17 Expr Fold Change ([2]; gene C-X-C motif chemokine ligand 17): −2.038 fold
- CXCR2 Expr Fold Change ([2]; gene C-X-C motif chemokine receptor 2): 1.871 fold
- CD14 Expr Fold Change ([2]; gene CD14 molecule): −2.154 fold
- CD74 Expr Fold Change ([2]; gene CD74 molecule): −2.103 fold
- CD151 Expr Fold Change ([2]; gene CD151 molecule (Raph blood group)): −1.664 fold
- CD244 Expr Fold Change ([2]; gene CD244 molecule): 2.837 fold
- CDSN Fold Change ([2]; gene Corneodesmosin): 9.465 fold
- CCL28 Expr Fold Change ([2]; gene C−C motif chemokine ligand 28): −2.504 fold
- FYB1 Expr Fold Change ([2]; gene FYN binding protein 1): −2.604 fold
- IFNE Fold Change ([2]; gene Interferon Epsilon): 5.496 fold
- IL19 Fold Change ([2]; gene Interleukin 19): −3.5 fold
- NLRP10 Fold Change ([2]; gene NLR family pyrin domain containing 10): 15.93 fold
- RNAse7 Fold Change ([2]; gene RNAse family): 8.158 fold
- TIAM1 Expr Fold Change ([2]; gene T cell lymphoma invasion and metastasis 1): 2.249 fold
- TNFAIP8 Expr Fold Change ([2]; gene TNF alpha induced protein 8): −1.601 fold
- TNFRSF10C Expr Fold Change ([2]; gene TNF receptor superfamily member 10c): −2.458 fold
- TNFRSF11B Expr Fold Change ([2]; gene TNF receptor superfamily member 11b): −2.012 fold
- TSPAN1 Fold Change ([2]; gene Tetraspanin 1): −2.3 fold
- TGM1 Fold Change ([2]; gene Transglutaminase 1): 1.966 fold
- TGM3 Fold Change ([2]; gene Transglutaminase 3): 30.074 fold and 30.1 fold
- TGM5 Fold Change ([2]; gene Transglutaminase 5): 2.237 fold
- TRIM31 Fold Change ([2]; gene Tripartite motif-containing 31): −5.9 fold
- VTCN1 Expr Fold Change ([2]; gene V-set domain containing T cell activation inhibitor 1): −4.666 fold
- WFDC2 Fold Change ([2]; gene WAP four-disulfide core domain 2): −2.8 fold
- WFDC5 Fold Change ([2]; gene WAP four-disulfide core domain 5): 3.139 fold
- ALOX12B Fold Change ([2]; gene arachidonate 12-lipoxygenase, 12R type): 6.6 fold and 6.683 fold
- ALOX12 Fold Change ([2]; gene arachidonate 12-lipoygenase): 1.5 fold
- ALOXE3 Fold Change ([2]; gene arachidonate lipoxygenase 3): 3.659 fold
- ASS1 Fold Change ([2]; gene arginosuccinate synthetase 1): −2.8 fold
- CLDN17 Fold Change ([2]; gene claudin 17): 11 fold
- CCDC59 Expr Fold Change ([2]; gene coiled-coil domain containing 59): −1.795 fold
- CSF2RB Expr Fold Change ([2]; gene colony stimulating factor 2 receptor beta common subunit): 2.79 fold
- CFH Expr Fold Change ([2]; gene complement factor H): −1.769 fold
- CNFN Fold Change ([2]; gene cornifelin): 1.62 fold
- CRCT1 Fold Change ([2]; gene cysteine-rich C-terminal 1): 2.6 fold
- DMKN Fold Change ([2]; gene dermokine): 2.362 fold
- DCS3 Fold Change ([2]; gene descmocollin 3): 1.9 fold
- DSC1 Fold Change ([2]; gene desmocollin 1): 10.494 fold
- DSC2 Fold Change ([2]; gene desmocollin 2): 1.7 fold
- DSG1 Fold Change ([2]; gene desmoglein 1): 9.191 fold and 8.7 fold
- FLG Fold Change ([2]; gene filaggrin): 4.549 fold
- FLG2 Fold Change ([2]; gene filaggrin family member 2): 10.449 fold
- GYS2 Fold Change ([2]; gene glycogen synthase 2 (liver)): 2.9 fold
- KPRP Fold Change ([2]; gene human keratinocyte proline rich protein): 25.318 fold and 25.3 fold
- IFIT5 Expr Fold Change ([2]; gene interferon induced protein with tetratricopeptide repeats 5): −2.183 fold
- IFIH1 Expr Fold Change ([2]; gene interferon induced with helicase C domain 1): −1.922 fold
- IRF1 Expr Fold Change ([2]; gene interferon regulatory factor 1): −3.253 fold
- IRF9 Expr Fold Change ([2]; gene interferon regulatory factor 9): −1.535 fold
- IL1RL2 Expr Fold Change ([2]; gene interleukin 1 receptor like 2): 2.508 fold
- IL7R Expr Fold Change ([2]; gene interleukin 7 receptor): −2.852 fold
- IL18BP Expr Fold Change ([2]; gene interleukin 18 binding protein): 1.532 fold
- IL23A Expr Fold Change ([2]; gene interleukin 23 subunit alpha): 2.677 fold
- IL33 Expr Fold Change ([2]; gene interleukin 33): −3.109 fold
